{"source": "patent US8058278B2", "about": "“Methods of enhancing mucosal hydration and mucosal clearance by treatment with sodium channel blockers and osmolytes” (Parion Sciences, Inc., priority 2006, dated 2011)", "origin": "cited, not measured here", "tested_on": "water permeability of airways", "conditions": "amiloride used concurrently with hypertonic saline", "data": [{"smiles": "N=C(N)NC(=O)c1nc(Cl)c(N)nc1N", "note": "[Amiloride, amiloride]", "values": [{"measurement": "effect on water permeability of airways", "value": "block the water permeability of airways"}]}]}
